Measurements: patent publication US9248085B2, “Effective depilatory article” (The Procter & Gamble Company, priority 2011, dated 2016)

Test: Hair removal from the skin and skin irritation by thioglycolate salts (statement, no method)
Format: in vivo
Conditions: even at low doses

Which “hair removal from the skin” value does the source give for `O=C([O-])CS.[K+]` [potassium thioglycolate] here?
Its value is “effective at removing hair from the skin”.
